Four compounds from patent US20240209353A1, “NADK2 INHIBITION IN CANCER AND FIBROTIC DISORDERS” (Memorial Sloan-Kettering Cancer Center, priority 2021, published 2024) can be followed below.

One data set concerns DLD1 and T47D cells. Briefly: Cell death quantification (ferroptosis sensitivity). The data set is classed as cell-based. Here is the method:
Cells were seeded in 96-well plates at appropriate cell densities (DLD1: 10000 cells/well, T47D: 15000 cells/well), and incubated overnight at 37° C. containing 5% CO2. Contact-inhibited MEFs were seeded in 24-well plates and incubated as described above. Cell were then subjected to treatments as described in figures. Cells were stained with Hoechst 33342 (0.1 μg/ml) to monitor total cell number, and with Sytox Green (5 nM) to monitor cell death. Culture plates were read by Cytation 5 at indicated time point. Percentage of cell death was calculated as Sytox Green-positive cell number over total cell number.

Data set [1] deals with T47D, MCF10A, HaCaT and DLD1 cells. Briefly: Cell proliferation (cell number fold change). The data set is classed as cell-based, human. To be noted: supplements at concentrations present in DMEM/F12. As to the method:
FIGS. 3A-3B show cell proliferation measured as cell number fold change (Day 4/Day 0) of T47D cells treated with sgCtrl, sgNADK2-1, or sgNADK2-2, cultured in the indicated medium and supplementation. “LA” is lipoic acid. “Pyr” is pyruvate. “Cu” is cupric sulfate. “Zn” is zinc sulfate. “B12” is vitamin B12. “A” is alanine. “D” is aspartate. “N” is asparagine. “E” is glutamate, and “P” is proline. All supplements were added at the concentrations present in DMEM/F12. […] FIGS. 3D-3F show a Western blot (FIG. 3D), proline abundance measured by GC-MS (FIG. 3E), and cell proliferation (FIG. 3F) of DMEM-cultured T47D cells treated with sgCtrl or sgNADK2-2 and ectopically expressing vector or NADK2 cDNA resistant to sgNADK2-2 mediated CRISPR-Cas9 genome editing. FIGS. 3G-3I show a Western blot (FIG. 3G), proline abundance measured by GC-MS (FIG. 3H), and cell proliferation (FIG. 3I) of DMEM-cultured T47D cells treated with sgCtrl, sgNADK2-1, or sgNADK2-2 and ectopically expressing vector or the POS5 cDNA. All error bars represent mean+SD, n=3. In FIGS. 3A-3C, 3H, and 3I, one-way ANOVA was performed. In FIGS. 3E and 3F, a two-sided t-test was performed with Welch's correction. ** P<0.01; *** P<0.001; n.s., P>0.05.
FIGS. 8D-8H show cell proliferation measured as cell number fold change of the indicated cells with sgCtrl, sgNADK2-1, or sgNADK2-2, cultured in the indicated medium and supplementation. […]

Data set [2] concerns MEFs. To be noted: 300 μM proline added to culture medium. Here is the method:
(§1) Cells were lysed in RIPA lysis buffer (Millipore 20-188) supplemented with protease inhibitors (Thermo Fisher, 78428). Protein concentration was determined by BCA protein assay (Thermo Fisher, 23228), following which equal amount of protein was loaded and separated in polyacrylamide gels. Protein was then transferred to nitrocellulose membrane for immunoblotting.

In the next data set the test system is NIH-3T3 cells. To be noted: 0.15 mM proline in culture medium. As to the method: as §1
Data set [3] has as its system MEFs. To be noted: proline supplementation to the medium.
Procedure: In brief, confluent MEFs were grown for two days on plates coated with 0.1% gelatin in the presence of 50 μM ascorbate (Sigma, A4034) in the indicated medium. Plates were decellularized with 20 mM ammonium hydroxide/0.5% Triton X-100 for 5 min on a rotating platform. Three times the volume of PBS was added, and ECM was equilibrated overnight at 4° C., followed by four additional PBS washes. To measure collagen abundance, extracted ECM was stained with the Picro Sirius Red Stain Kit (Abcam, ab150681) according to the manufacturer's instructions. The stain was extracted with 0.1 M NaOH, and optical density was measured at 550 nm using a microplate reader. Values were normalized to the packed cell volume of cells grown on a separate plate under the same experimental conditions.
For data set [4], the system named is DLD1, T47D and HaCaT cells. Briefly: Western blot: GSH synthesis enzymes, peroxiredoxin oxidation. The data set is classed as cell-based, human. Particulars: 100 μM MitoPQ, 24 hours; similar extent in cells lacking NADK2 and control cells. An excerpt:
Protein was then transferred to nitrocellulose membrane for immunoblotting.
A general note: Immunoblotting shows a protein as a band on a membrane.

Molecules are shown by their SMILES. Where two headings read alike, the source gives them in different places.

Turning to `COC(=O)c1ccc([C@@H]2c3[nH]c4ccccc4c3C[C@@H](C(=O)OC)N2C(=O)CCl)cc1` [RSL3], the “cell death of cells lacking NADK2 upon ferroptosis inducer” value in the data set with DLD1 and T47D cells (vs control cells, 24 or 48 hours) is listed as “no increase in cell death”.
Consider `O=C(O)[C@@H]1CCCN1` [proline, L-proline], for which the “growth of cells lacking NADK2 in DMEM upon supplementation” value in data set [1] is “necessary and sufficient to restore proliferation”. In the data set with MEFs [2], the “ATF4 accumulation in cells lacking NADK2” value is recorded as “blunted” and the “collagen expression in cells lacking NADK2” value is on record as “restored”. Moreover, the “expression of collagen protein in P5CS-deleted cells upon proline addition” value in the data set with NIH-3T3 cells is “restored”. Also, the “collagen secretion of fibroblasts lacking NADK2 upon supplementation” value in the data set on MEFs [3] was “rescued”.
With `CCOc1ccccc1-n1c(C(C)N2CCN(C(=O)COc3ccc(Cl)cc3)CC2)nc2ccccc2c1=O` (centres unmarked) [Erastin], the “cell death of cells lacking NADK2 upon ferroptosis inducer” value in the data set with DLD1 and T47D cells is on record as “no increase in cell death”.
In the case of `C[n+]1ccc(-c2cc[n+](CCCCCCCCCC[P+](c3ccccc3)(c3ccccc3)c3ccccc3)cc2)cc1.[I-].[I-].[I-]` [MitoParaquat], the “expression of enzymes involved in GSH synthesis” value in data set [4] was “increased”.
